Test results reported in US12409206B2, “Use of cyclosporine analogues for treating fibrosis” (Hepion Pharmaceuticals, Inc., priority 2020, dated 2025).

How the values were obtained:
[1] = system: Human LX-2 Hepatic Stellate Cells; assay: Procollagen and fibronectin ELISA of spent medium, LX-2 culture; type: cell-based; details: 24 hours, both in the absence or presence of 0.1 ng/ml TGFβ
Method: (§1) Human LX-2 Hepatic Stellate Cells (Millipore-Sigma, Cat. #SCC064) were cultured in 96-well plates. Treatments were applied in triplicate wells (applied 100 ul treatments per well) for 24 hours. Cells were near confluence at the start of treatments. […] Spent culture medium collected at the end of the treatments was assayed for procollagen and fibronectin by enzyme-linked immunosorbent assays (ELISA) (Procollagen ELISA antibody pair (ab216064) and fibronectin ELISA antibody pair (ab222262) from Abcam). Procollagen and fibronectin were not detected in medium not applied to cells. Procollagen and fibronectin levels in the medium are represented by means±SD (bars) from 3 replicate wells (open circles).

[2] = system: Human cardiac fibroblasts; assay: Procollagen and fibronectin ELISA of spent medium, cardiac fibroblast culture; type: cell-based; details: 6 days, both in the absence or presence of 0.4 ng/ml TGFβ
Method: as §1, with “cardiac fibroblasts (Lonza Bioscience,” for “LX-2 Hepatic Stellate Cells (Millipore-Sigma,”, “#CC-2903)” for “#SCC064)”, “6 days.” for “24 hours.”, “of” for “of the”

[3] = system: Human adult dermal fibroblasts; assay: Procollagen and fibronectin ELISA of spent medium, dermal fibroblast culture; type: cell-based; details: medium from Day 1-2 of treatment, in the absence or presence of 10 ng/ml EGF or 0.4 ng/ml TGFβ
Method: as §1, with “adult dermal fibroblasts (Lonza Bioscience,” for “LX-2 Hepatic Stellate Cells (Millipore-Sigma,”, “#CC-2511)” for “#SCC064)”, “1 day, then re-applied for one additional day.” for “24 hours.”, “from Day 1-2” for “at the end”, “treatment” for “the treatments”, “circles). […].” for “circles).”

[4] = system: Human cardiac fibroblasts; assay: Cell viability analysis, cardiac fibroblast culture; type: cell-based; details: end of treatment (6 days)
Method: as §1, with “cardiac fibroblasts (Lonza Bioscience,” for “LX-2 Hepatic Stellate Cells (Millipore-Sigma,”, “#CC-2903)” for “#SCC064)”, “6 days.” for “24 hours.”, “of” for “of the”

[5] = system: Human adult dermal fibroblasts; assay: Cell viability analysis, dermal fibroblast culture; type: cell-based; details: end of 4 days of treatment (so in the source)
[6] = system: human precision cut liver slices (PCLS); assay: PCLS Sirius red tissue fibrosis, Stimulation Protocol (TGFβ+PDGF-BB); type: cell-based; details: compared with other NASH drug candidates
Method: (§2) PCLS were obtained from 5 human donors who underwent resection of liver cancer. Replicate slices were collected from healthy margins of the resections and cultured for 4 or 6 days depending on the experimental protocol. In the Nonstimulation Protocol slices were cultured for 6 days and treated for the entire period with DMSO vehicle or 5 μM CRV431. In the Stimulation Protocol slices were rested for 1 day and then administered the cytokines, TGFβ and PDGF-BB, for 3 days to stimulate inflammation and fibrosis. […]
(§3) Four types of evaluations were conducted on the PCLS: (a) secretion of inflammation and fibrosis biomarkers into the culture medium, (b) histological staining and quantitation of Sirius red as a measure of tissue fibrosis, (c) gene expression of inflammation and fibrosis biomarkers by RT-PCR, and (d) RNA sequencing (RNA-Seq) of the complete transcriptome. […] ELISAs were used to quantify secretion of monocyte chemoattractant protein (MCP-1), interleukin-6 (IL-6), tissue inhibitor of metalloproteinase-1 (TIMP1), hyaluronic acid, fibronectin, and collagen 1α1. For each donor the mean level of biomarker secretion in each treatment group was expressed as a percentage change relative to DMSO vehicle, the percentages averaged for all donors, and finally the mean daily percentage change calculated from all days of evaluation. […]

[7] = system: human precision cut liver slices (PCLS); assay: PCLS Sirius red tissue fibrosis, Nonstimulation Protocol; type: cell-based; details: 6 days of culture in the absence of exogenous TGFβ+PDGF-BB; most CRV431-treated slices
Method: as §2, §3

[8] = system: human precision cut liver slices (PCLS); assay: PCLS biomarker secretion (ELISA); type: cell-based
Method: PCLS were obtained from 5 human donors who underwent resection of liver cancer. Replicate slices were collected from healthy margins of the resections and cultured for 4 or 6 days depending on the experimental protocol. In the Nonstimulation Protocol slices were cultured for 6 days and treated for the entire period with DMSO vehicle or 5 μM CRV431. In the Stimulation Protocol slices were rested for 1 day and then administered the cytokines, TGFβ and PDGF-BB, for 3 days to stimulate inflammation and fibrosis. DMSO vehicle, CRV431 (1 and 5 μM), Alk5i (10 μM), obeticholic acid (5 μM), elafibranor (5 μM), resmetirom ([…]), and Aramchol (5 μM) were administered individually as drug treatments in the Stimulation Protocol concurrent with TGFβ+PDGF-BB. Culture medium treatments were replaced daily.
Four types of evaluations were conducted on the PCLS: (a) secretion of inflammation and fibrosis biomarkers into the culture medium, (b) histological staining and quantitation of Sirius red as a measure of tissue fibrosis, (c) gene expression of inflammation and fibrosis biomarkers by RT-PCR, and (d) RNA sequencing (RNA-Seq) of the complete transcriptome. Each of the four types of evaluation is described below: • (a) Biomarker secretion. Spent culture medium was collected daily from duplicate slices for each treatment. ELISAs were used to quantify secretion of monocyte chemoattractant protein (MCP-1), interleukin-6 (IL-6), tissue inhibitor of metalloproteinase-1 (TIMP1), hyaluronic acid, fibronectin, and collagen 1α1. For each donor the mean level of biomarker secretion in each treatment group was expressed as a percentage change relative to DMSO vehicle, the percentages averaged for all donors, and finally the mean daily percentage change calculated from all days of evaluation. […] Sirius red was quantified morphometrically in the histological sections as the percentage area with Sirius red staining in 10 sections from each treatment. In the Nonstimulation Protocol the quantity of Sirius red staining was expressed relative to the vehicle group. In the Stimulation Protocol the quantity of Sirius red staining was expressed relative to nonstimulated PCLS (0%) and TGFβ+PDGF-BB-stimulated+vehicle PCLS (100%). […] RNA was isolated from duplicate liver slices per treatment at the end of the experiments and evaluated by RT-PCR for 5 markers of inflammation and fibrosis: MCP-1, IL-6, TIMP1, αSMA, and collagen 1α1. β actin was used as a reference gene to calculate relative levels of each target gene RNA. […] RNA sequencing of the complete transcriptome (30 million reads per sample) was conducted on vehicle and 5 μM CRV431 treatment groups from 3 donors both from the Nonstimulation and Stimulation Protocols. […]

HIV = details: preclinical studies; cited from earlier work

Question: With CC[C@@H]1NC(=O)[C@H]([C@H](O)[C@H](C)CCCCCCNC(C)=O)N(C)C(=O)[C@H](C(C)C)N(C)C(=O)[C@H](CC(C)C)N(C)C(=O)[C@H](CC(C)C)N(C)C(=O)[C@@H](C)NC(=O)[C@H](C)NC(=O)[C@H](CC(C)C)N(C)C(=O)[C@H](C(C)C)NC(=O)[C@H](CC(C)C)N(C)C(=O)[C@@H](C)N(C)C1=O [CRV431] as the compound, how does the “abundance of fibronectin in the medium” value [1] read?
Answer: Its value is “dose-dependently decreased”.

Question: What about the “abundance of procollagen in the medium” value [1] of the same compound?
Answer: Its value is “dose-dependently decreased”.

Question: What about the “abundance of fibronectin in the medium” value [2] of the same compound?
Answer: Its value is “dose-dependently decreased”.

Question: What about the “abundance of procollagen in the medium” value [2] of the same compound?
Answer: Its value is “dose-dependently decreased”.

Question: And the “abundance of fibronectin in the medium” value [3]?
Answer: The value was “dose-dependently decreased”.

Question: And the “abundance of procollagen in the medium” value [3]?
Answer: Its value is “dose-dependently decreased”.

Question: What about the cell viability [4] of the same compound?
Answer: Its cell viability is “none of the CRV431 treatments affected cell viability”.

Question: And the cell viability [5]?
Answer: The cell viability was “none of the CRV431 treatments affected cell viability”.

Question: What about the “preventing TGFβ+PDGF-BB-induced tissue fibrosis” value [6] of the same compound?
Answer: Its value is “most effective of five NASH drug candidates”.

Question: What about the “tissue fibrosis vs vehicle-treated slices” value [7] of the same compound?
Answer: Its value is “less fibrosis than vehicle-treated slices”.

Question: What about the “mean daily secretion of all markers” value ([8]; CRV431 applied at 5 μM, markers MCP-1, IL-6, TIMP1, hyaluronic acid, fibronectin, collagen 1α1) of the same compound?
Answer: The value was “decreased”.

Question: What about the “secretion of collagen1α1, fibronectin, hyaluronic acid, IL-6, and MCP-1” value ([8]; ELISA) of the same compound?
Answer: Its value is “reduced secretion”.

Question: And the anti-viral activity (HIV)?
Answer: The anti-viral activity was “shows anti-viral activity”.
